Assay results published in patent US9415023B2, “Compositions comprising terpene compounds for treating negative sensory phenomena” (NeuroQuest Inc., priority 2008, dated 2016).
Entries after “also recorded” stand apart in the source; their conditions may differ.

Experiments:
[1] = Subject-reported relief of numbness and pain after topical application (case studies); assay type: in vivo, human
Description: (§1) A natural blend of geranium oil and other essential oils (Table 1) was also tested in a panel of human neuropathic pain sufferers, some of whom experienced negative sensory phenomena. […] The geranium oil blend or geraniol was topically applied in therapeutically effective amounts to areas of the human body affected with symptoms of negative sensory symptoms. Dosage amount depended on the size of the patient's affected areas. […] Once administered, a typical positive response was reported typically within minutes.

[2] = Nylon filament test of sensation after topical application (case studies); assay type: in vivo, human
Description: as §1
7, 2008 and complained of numbness on the soles of their feet. Their sensation was tested with a nylon filament and the patient could not feel the filament on the ball of either foot. Geraniol was applied to the ball of one foot. After approximately 5 minutes the feet were retested with the nylon filament. The foot that had not been treated still could not detect the touch of the filament.
They could not feel a nylon filament used to test sensation on the bottom of either foot. They had geraniol applied to the left foot and the sensation was retested after 5 minutes. […] The patient was given geraniol to use on the left foot every other day.

cortical neuron = experiment: Perforated patch clamp electrophysiology of mouse brain slices; assay type: cell-based; conditions: for membrane current (current-voltage relation): geraniol vs. control
Description: Studies were conducted on mouse hippocampal brain slice preparations. In terms of the slice preparations, […] coronal brain slices were prepared from animals housed in a 12 hour light (ZT 0-12):12 hour dark (ZT 12-24) environment. Animals were anesthetized with isoflurane, decapitated, the brain rapidly removed and placed in ice cold, oxygenated (95% 02:5% C02), bicarbonate-buffered artificial cerebral spinal fluid (ACSF). A 1 cm^2 block of brain tissue containing the hippocampi was glued to a cutting surface and coronal slices were prepared using a Leica VT1000S microtome (Leica Microsystems). All slices were left to equilibrate for approximately one hour prior to the transfer to a recording chamber. Once transferred to the chamber, slices were continuously superfused with oxygenated ACSF at a rate of 3 ml/min @30° C. and recordings are generally made for the next 6-12 hours. Patch microelectrodes (5-8 MΩ) made from borosilicate glass (Garner Glass Co.) and filled with K^+ based internal patch solution composed of: (in mM) 120 K-acetate, 40 HEPES, 10 EGTA, 6 MgCl2, nystatin (450 μg/ml) or gramicidin B (5 μg/ml) and pluronic acid F127.
The perforated patch recording technique and will be used (Korn & Horn, 1989) and viable Hippocampal neurons were visually targeted using Infrared Differential Interference Contrast (IR-DIC) microscopy using a Leica DM LFSA scope. […] Recordings were made from 3 different patch rigs equipped with either […] patch clamp amplifiers interfaced via a Digidata 1322A to a PC computer or on, in terms of the studies performed on dissociated DRG neurons, a Zeiss Axoscop 200 inverted microscope equipped with an Axopatch 200B/Digidata 1322A using Pclamp 9.0 and Axoscope 9 software.
Test compounds were bath-applied by superfusion to examine for changes in excitability and/or attenuation of ion channels and the effects of compounds on evoked synaptic responses. Stimulating electrodes (concentric or bipolar) were placed within the slices and in accordance with the well known fiber tract pathways of passage for the DH and the hippocampus.

## CC(C)=CCC/C(C)=C/CO [geraniol, 2,6-Octadien-1-ol, 3,7-dimethyl-, (2E)-]
[1]
  numbness / negative sensory phenomena, subject-reported: improvements seen in subjectively reported symptoms
[2]; topical every other day, over 2 week period
  feeling in treated foot vs untreated foot: continued to have more feeling than the right foot
[2]; topical, retested after approximately 5 minutes, untreated foot as comparison
  sensation tested with nylon filament on treated foot: improvements in sensory functioning; also recorded: able to feel the nylon filament; also recorded: could detect feeling with a nylon filament
Cortical neuron; 10 mV steps (250 ms) from -110 to -20 mV, in presence of compound
  action potentials during current-voltage steps: inhibition of action potentials
Cortical neuron; 10 mV steps (250 ms) from -110 to -20 mV
  membrane current (current-voltage relation): reduction in the membrane current amplitude; also recorded: reduction of membrane currents
Cortical neuron; 10 mV steps (250 ms) from -110 to -20 mV, listed as Geraniol
  membrane current (current-voltage relation): reduction of membrane currents
Cortical neuron; depolarizing current pulse of 0.4 nA
  action potential following depolarizing current pulse: inhibition of action potential
Cortical neuron; most negative voltage step (-110 mV), FIG. 3, ranking among samples
  net current reduction (current differential between control and tested compound): greatest inhibition
